Test results: PMC2684828 (Analytical chemistry, 2009)

Target: T1, Cytochrome P450cam (CYP101) (Pseudomonas putida, UniProt P00183)
T1 sequence (P00183 2-415): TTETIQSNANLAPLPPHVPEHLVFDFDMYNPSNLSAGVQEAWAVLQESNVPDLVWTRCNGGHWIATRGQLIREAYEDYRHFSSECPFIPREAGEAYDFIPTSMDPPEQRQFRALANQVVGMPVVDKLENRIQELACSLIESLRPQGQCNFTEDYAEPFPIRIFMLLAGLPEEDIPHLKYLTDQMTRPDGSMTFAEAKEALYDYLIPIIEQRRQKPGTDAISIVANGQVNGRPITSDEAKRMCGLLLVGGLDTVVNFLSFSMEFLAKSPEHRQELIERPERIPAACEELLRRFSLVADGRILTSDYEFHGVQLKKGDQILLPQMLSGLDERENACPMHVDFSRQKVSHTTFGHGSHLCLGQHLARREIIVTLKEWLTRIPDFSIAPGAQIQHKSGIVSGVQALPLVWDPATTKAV
Assay: enzyme/DNA film biosensor
Assay type: biochemical

SMILES	Ki [µM]
O=C(O)Cc1c[nH]cn1 [Imid.4AA, imidazole-4-acetic acid]	142
c1c[nH]cn1 [Imid., imidazole]	245
